Measured values from patent publication US7875598B2, “Compositions useful for the treatment of microbial infections” (The Regents of the University of California, priority 2004, dated 2011).
Values after ≈ are worked out from the molar mass of the structure shown.

How the values were obtained:
C. albicans = assay: Anti-fungal activity (MIC) against C. albicans; assay type: cell-based, Candida albicans; conditions: for MIC: Candida albicans
Method: The compositions of the present invention usually have an anti-microbial effect, e.g., anti-G^+ bacteria activity, anti-G^− bacteria activity, anti-fungus activity or effect on bacterial quorum sensing. Methods or assays for testing the anti-microbial activity of a composition are readily available to one skilled in the art. For example, compositions of the present invention can be incubated with a bacterial or fungous culture, and the bacterial or fungous growth can be subsequently examined with a plate reader. Compositions of the present invention can also be examined for their effect on bacterial quorum sensing using either an acyl-homoserine lactone quorum sensing reporter system or a luxS quorum sensing reporter system.
(§1) Bioassays were conducted to further characterize these two compounds.

[1] = system: Clinical isolated drug-resistant C. albicans; assay: Sensitivity of clinical isolated drug-resistant C. albicans; assay type: cell-based, Candida albicans
Method: as §1

S. mutans = assay: Anti-bacterial activity (MIC) against S. mutans; assay type: cell-based, Streptococcus mutans; conditions: for MIC: Streptococcus mutans
[2] = system: Vancomycin resistant Enterococci; assay: Sensitivity of Vancomycin resistant Enterococci; assay type: cell-based
[3] = system: methicillin resistant Staphylococcus aureus; assay: Sensitivity of methicillin resistant Staphylococcus aureus; assay type: cell-based
bacteria = assay: Enhancement of activity of other antibiotics (synergistic effect) in the bioassay; assay type: cell-based
Description: Perilla was selected for two types of bioactivity. […] The second is its ability to enhance other antibacterial activities through some kind of synergistic effect. When the crude extract was mixed with antibiotics in the bioassay, it could enhance the activity of other antibiotics at a concentration at least 10 times lower than its MIC.

SMILES	fungicidal effect (C. albicans)	MIC (C. albicans) [µg/mL]	sensitivity of clinical isolated drug-resistant C. albicans to treatment [1]	MIC (S. mutans) [µg/mL]	other results
CC1OC(OC2C(O)[C@H](OC3OC(C)C(O)C(O)C3O)C(CO)O[C@H]2O[C@H]2CC[C@@]3(C)C(=CCC4C5CC6OC7(CC[C@@H](C)CO7)[C@@H](C)C6[C@@]5(C)CCC43)C2)C(O)C(O)C1O (stereo partly drawn) [Dioscin, (3β,25R)-spirost-5-en-3-yl O-6-deoxy-α-L-mannopyranosyl-(1→2)-O-[6-deoxy-α-L-mannopyranosyl-(1→4)]-β-D-glucopyranoside]	fungicidal effect	~4 (≈ 4.6 µM)	still sensitive	–	–
CC/C=C\C/C=C\C/C=C\CCCCCCCC(=O)O [Linolenic acid, (9Z,12Z,15Z)-9,12,15-octadecatrienoic acid]	–	–	–	10 (≈ 35.9 µM)	–
CC1OC(OC2[C@H](O[C@H]3CC[C@@]4(C)C(=CCC5C6CC7OC8(CC[C@@H](C)CO8)[C@@H](C)C7[C@@]6(C)CCC54)C3)OC(CO)[C@@H](O[C@@H]3O[C@@H](CO)[C@@H](O)[C@H]3O)[C@@H]2O)C(O)C(O)C1O (stereo partly drawn) [Polyphyllin D, (3β,25R)-spirost-5-en-3-yl O-α-L-arabinofuranosyl-(1→4)-O-[6-deoxy-α-L-mannopyranosyl-(1→2)]-β-D-glucopyranoside]	fungicidal effect	~2 (≈ 2.34 µM)	still sensitive	–	–
C=C(C)[C@H](CC=C(C)C)Cc1c(O)cc(OC)c2c1O[C@H](c1ccc(O)cc1O)CC2=O [kurarinone, 2-(2,4-dihydroxyphenyl)-2,3-dihydro-7-hydroxy-5-methoxy-8-[5-methyl-2-(1-methylethenyl)-4-hexenyl]-4H-1-benzopyran-4-one]	–	–	–	4 (≈ 9.12 µM)	bactericidal effect (S. mutans; organism not given): bactericidal effect; sensitivity of antimicrobial activity to environmental changes (S. mutans; pH (4.8-7.4), salt composition (Na, K, Ca), salt concentrations, oxygen levels (anaerobic and aerobic), temperature (120° C.)): insensitive; sensitivity of Vancomycin resistant Enterococci to the compound [2]: sensitive; sensitivity of methicillin resistant Staphylococcus aureus to the compound [3]: sensitive
C=C(C)C1CC=C(C=O)CC1 (centres unmarked) [perillaldehyde, 4-(1-methylethenyl)-1-cyclohexene-1-carboxaldehyde]	–	–	–	10000 (≈ 66600 µM)	ability to enhance activity of other antibiotics (bacteria): enhance activity of other antibiotics in a dose-dependent manner
